Experimental data taken from article PMC7522858, “The Synthetic Myeloperoxidase Inhibitor AZD3241 Ameliorates Dextran Sodium Sulfate Stimulated Experimental Colitis” (Frontiers in Pharmacology, 2020).

Molecular target: T1, myeloperoxidase (MPO) (Homo sapiens, UniProt P05164)
T1 construct: isolated human MPO
Experiment: luminol luminescence assay of isolated human MPO with H2O2 and NaCl
Type: biochemical

T1 sequence (P05164 165-273): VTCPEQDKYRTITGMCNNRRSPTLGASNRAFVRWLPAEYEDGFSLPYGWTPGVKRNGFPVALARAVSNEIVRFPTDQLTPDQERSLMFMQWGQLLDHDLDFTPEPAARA
T1 sequence (P05164 279-745): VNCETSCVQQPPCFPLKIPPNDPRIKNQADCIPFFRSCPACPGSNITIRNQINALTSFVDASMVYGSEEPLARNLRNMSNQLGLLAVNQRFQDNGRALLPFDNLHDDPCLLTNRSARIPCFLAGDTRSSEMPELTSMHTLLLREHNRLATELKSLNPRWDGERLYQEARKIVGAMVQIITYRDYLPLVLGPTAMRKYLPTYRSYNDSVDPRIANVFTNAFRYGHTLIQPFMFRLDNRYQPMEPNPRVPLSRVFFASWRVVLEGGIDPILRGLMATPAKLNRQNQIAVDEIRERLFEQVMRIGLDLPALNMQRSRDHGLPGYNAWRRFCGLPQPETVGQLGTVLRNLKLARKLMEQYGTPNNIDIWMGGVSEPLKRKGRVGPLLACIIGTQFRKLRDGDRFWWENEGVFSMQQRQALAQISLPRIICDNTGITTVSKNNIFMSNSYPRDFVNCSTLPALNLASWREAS

IC50: ~1200 nM
SMILES: CC(C)OCCn1c(=S)[nH]c(=O)c2[nH]ccc21 [AZD3241]
